Test results from publication PMC12528448, “Resistance to CDK7 inhibitors directed by acquired mutation of a conserved residue in cancer cells” (The EMBO Journal, 2025).
Where “and” joins values, the source holds several entries; their conditions need not be identical. Identical values can stand only once.

Key:
[1] = test system: MCF7-CDK4^D99N (CL1) cells; assay: IncuCyte confluency growth, homozygous CDK4 D99N clone CL1; format: cell-based, human
Experimental: (§1) To determine the IC50 of drug treatments on growth, cells were seeded in 96-well culture plates. Two days after seeding, the cells were treated with increasing concentrations of drugs and incubated for 4 days. Cell number was determined using the SRB assay (Skehan et al, [1990]), and IC50 values were calculated using non-linear regression curve fitting in GraphPad Prism v10. For all other growth experiments, cells were seeded into 96-well plates, and appropriate drugs were added 2 days after seeding. Cells were then incubated in an IncuCyte Zoom live-cell imager, with cell confluency measured every 6 h. Cell doubling times were determined by non-linear curve fitting (exponential growth equation) in GraphPad Prism v10.

[2] = test system: MCF7-CDK4^WT/D99N (CL4) cells; assay: IncuCyte confluency growth, heterozygous CDK4 D99N clone CL4; format: cell-based, human
Experimental: as §1

[3] = homozygous mutant clone, 1 µM Palbociclib
[4] = heterozygous mutant clone, 1 µM Palbociclib

`CC(=O)c1c(C)c2cnc(Nc3ccc(N4CCNCC4)cn3)nc2n(C2CCCC2)c1=O` [Palbociclib] was tested, and the “% Confluency” value ([1]; MCF7 CDK4 D99N/D99N CL1, 500nM Palbociclib, 60 Hours) was 17.13% and 22.40% and 23.57%, the “% Confluency” value ([1]; MCF7 CDK4 D99N/D99N CL1, 500nM Palbociclib, 72 Hours) was 21.34% and 27.28% and 27.86% and the “% Confluency” value ([1]; MCF7 CDK4 D99N/D99N CL1, 500nM Palbociclib, 84 Hours) was 27.05% and 33.32% and 34.40%. For the same molecule, the “% Confluency” value ([1]; MCF7 CDK4 D99N/D99N CL1, 500nM Palbociclib, 96 Hours) was 34.72% and 41.63% and 42.47%, the “% Confluency” value ([1]; MCF7 CDK4 D99N/D99N CL1, 500nM Palbociclib, […] Hours) was 39.86% and the “% Confluency” value ([1]; MCF7 CDK4 D99N/D99N CL1, 1000nM Palbociclib, 0 Hours) was 4.23% and 6.28% and 8.65%. The “% Confluency” value ([1]; MCF7 CDK4 D99N/D99N CL1, 1000nM Palbociclib, 12 Hours) was 6.49% and 9.38% and 13.38%, the “% Confluency” value ([1]; MCF7 CDK4 D99N/D99N CL1, 1000nM Palbociclib, 24 Hours) was 8.61% and 12.05% and 16.81% and the “% Confluency” value ([1]; MCF7 CDK4 D99N/D99N CL1, 1000nM Palbociclib, 36 Hours) was 10.75% and 13.98% and 18.02%. The “% Confluency” value ([1]; MCF7 CDK4 D99N/D99N CL1, 1000nM Palbociclib, 48 Hours) was 13.71% and 15.18% and 19.26%, the “% Confluency” value ([1]; MCF7 CDK4 D99N/D99N CL1, 1000nM Palbociclib, 60 Hours) was 17.11% and 17.23% and 21.83% and the “% Confluency” value ([1]; MCF7 CDK4 D99N/D99N CL1, 1000nM Palbociclib, 72 Hours) was 21.46% and 20.52% and 24.80%. For the same molecule, the “% Confluency” value ([1]; MCF7 CDK4 D99N/D99N CL1, 1000nM Palbociclib, 84 Hours) was 26.42% and 23.91% and 29.84%, the “% Confluency” value ([1]; MCF7 CDK4 D99N/D99N CL1, 1000nM Palbociclib, 96 Hours) was 33.28% and 29.04% and 35.27% and the “Sensitivity of growth” value ([1]; homozygous mutant clone vs MCF7) was “substantially less sensitive”. The Doubling time [1, 3] was 54.6 (95% CI = 48.4–62.1) h, the “Increase of doubling time vs vehicle” value [1, 3] was “twofold” and the “% Confluency” value ([2]; MCF7 CDK4 WT/D99N CL4, 50nM Palbociclib, 0 Hours) was 5.85% and 7.14% and 7.68%. For the same molecule, the “% Confluency” value ([2]; MCF7 CDK4 WT/D99N CL4, 50nM Palbociclib, 12 Hours) was 8.21% and 10.76% and 12.27%, the “% Confluency” value ([2]; MCF7 CDK4 WT/D99N CL4, 50nM Palbociclib, 24 Hours) was 10.88% and 13.85% and 15.74% and the “% Confluency” value ([2]; MCF7 CDK4 WT/D99N CL4, 50nM Palbociclib, 36 Hours) was 13.80% and 16.38% and 19.05%. The “% Confluency” value ([2]; MCF7 CDK4 WT/D99N CL4, 50nM Palbociclib, 48 Hours) was 17.70% and 21.33% and 24.63%, the “% Confluency” value ([2]; MCF7 CDK4 WT/D99N CL4, 50nM Palbociclib, 60 Hours) was 22.48% and 27.81% and 30.42% and the “% Confluency” value ([2]; MCF7 CDK4 WT/D99N CL4, 50nM Palbociclib, 72 Hours) was 27.76% and 35.03% and 37.64%. The “% Confluency” value ([2]; MCF7 CDK4 WT/D99N CL4, 50nM Palbociclib, 84 Hours) was 35.06% and 44.68% and 46.96%, the “% Confluency” value ([2]; MCF7 CDK4 WT/D99N CL4, 50nM Palbociclib, 96 Hours) was 44.30% and 55.86% and 62.70% and the “% Confluency” value ([2]; MCF7 CDK4 WT/D99N CL4, 100nM Palbociclib, 0 Hours) was 5.03% and 8.02% and 6.57%. For the same molecule, the “% Confluency” value ([2]; MCF7 CDK4 WT/D99N CL4, 100nM Palbociclib, 12 Hours) was 7.75% and 11.69% and 10.17%, the “% Confluency” value ([2]; MCF7 CDK4 WT/D99N CL4, 100nM Palbociclib, 24 Hours) was 10.36% and 14.93% and 13.32% and the “% Confluency” value ([2]; MCF7 CDK4 WT/D99N CL4, 100nM Palbociclib, 36 Hours) was 12.94% and 17.97% and 15.30%. The “% Confluency” value ([2]; MCF7 CDK4 WT/D99N CL4, 100nM Palbociclib, 48 Hours) was 16.50% and 23.21% and 19.26%, the “% Confluency” value ([2]; MCF7 CDK4 WT/D99N CL4, 100nM Palbociclib, 60 Hours) was 21.25% and 30.29% and 23.70% and the “% Confluency” value ([2]; MCF7 CDK4 WT/D99N CL4, 100nM Palbociclib, 72 Hours) was 26.21% and 37.68% and 29.57%. For the same molecule, the “% Confluency” value ([2]; MCF7 CDK4 WT/D99N CL4, 100nM Palbociclib, 84 Hours) was 33.66% and 47.41% and 37.94%, the “% Confluency” value ([2]; MCF7 CDK4 WT/D99N CL4, 100nM Palbociclib, 96 Hours) was 41.77% and 57.37% and 52.38% and the “% Confluency” value ([2]; MCF7 CDK4 WT/D99N CL4, 500nM Palbociclib, 0 Hours) was 4.80% and 7.59% and 7.67%. The “% Confluency” value ([2]; MCF7 CDK4 WT/D99N CL4, 500nM Palbociclib, 12 Hours) was 7.05% and 11.14% and 11.17%, the “% Confluency” value ([2]; MCF7 CDK4 WT/D99N CL4, 500nM Palbociclib, 24 Hours) was 9.22% and 14.33% and 14.28% and the “% Confluency” value ([2]; MCF7 CDK4 WT/D99N CL4, 500nM Palbociclib, 36 Hours) was 10.74% and 17.40% and 16.58%. The “% Confluency” value ([2]; MCF7 CDK4 WT/D99N CL4, 500nM Palbociclib, 48 Hours) was 12.63% and 21.45% and 19.54%, the “% Confluency” value ([2]; MCF7 CDK4 WT/D99N CL4, 500nM Palbociclib, 60 Hours) was 15.04% and 27.04% and 23.43% and the “% Confluency” value ([2]; MCF7 CDK4 WT/D99N CL4, 500nM Palbociclib, 72 Hours) was 17.72% and 33.02% and 27.35%. For the same molecule, the “% Confluency” value ([2]; MCF7 CDK4 WT/D99N CL4, 500nM Palbociclib, 84 Hours) was 21.21% and 40.89% and 33.24%, the “% Confluency” value ([2]; MCF7 CDK4 WT/D99N CL4, 500nM Palbociclib, 96 Hours) was 25.51% and 49.34% and 42.77% and the “% Confluency” value ([2]; MCF7 CDK4 WT/D99N CL4, 500nM Palbociclib, […] Hours) was 36.56%. The “% Confluency” value ([2]; MCF7 CDK4 WT/D99N CL4, 1000nM Palbociclib, 0 Hours) was 4.12% and 6.61% and 6.57%, the “% Confluency” value ([2]; MCF7 CDK4 WT/D99N CL4, 1000nM Palbociclib, 12 Hours) was 6.05% and 10.03% and 9.86% and the “% Confluency” value ([2]; MCF7 CDK4 WT/D99N CL4, 1000nM Palbociclib, 24 Hours) was 7.59% and 12.47% and 13.02%. The “% Confluency” value ([2]; MCF7 CDK4 WT/D99N CL4, 1000nM Palbociclib, 36 Hours) was 9.19% and 15.30% and 14.61%, the “% Confluency” value ([2]; MCF7 CDK4 WT/D99N CL4, 1000nM Palbociclib, 48 Hours) was 10.50% and 18.34% and 17.08% and the “% Confluency” value ([2]; MCF7 CDK4 WT/D99N CL4, 1000nM Palbociclib, 60 Hours) was 12.27% and 23.14% and 19.62%. For the same molecule, the “Sensitivity of growth” value ([2]; heterozygous mutant clone vs MCF7) was “substantially less sensitive”, the Doubling time [2, 4] was 55.3 (95% CI = 43.9–71.7) h and the “Increase of doubling time vs vehicle” value [2, 4] was “twofold”.
